Laboratory results as given in BindingDB's records for doi:10.1016/j.bmcl.2004.04.008 (Fudan University, 2004).

test: Concentration required to protect the cell against HIV-1 strain IIIB viral cytopathogenicity by 50% in MT-4 cells

Compound | IC50
Cc1c(Sc2ccccc2)n(COCCO)c(=O)[nH]c1=O | 5060 nM
CCc1c(Cc2cccc3ccccc23)nc(SCC(=O)c2ccc(F)cc2)[nH]c1=O | 78 nM
COC(=O)CSc1nc(Cc2cccc3ccccc23)c(C(C)C)c(=O)[nH]1 | 4490 nM
CC(=O)CSc1nc(Cc2cccc3ccccc23)c(C(C)C)c(=O)[nH]1 | 410 nM
COc1ccc(C(=O)CSc2nc(Cc3cccc4ccccc34)c(C(C)C)c(=O)[nH]2)cc1 | 30 nM
CCc1c(Cc2cccc3ccccc23)nc(SCC(=O)c2ccc(Cl)cc2)[nH]c1=O | 260 nM
CC(C)c1c(Cc2cccc3ccccc23)nc(SCC(=O)c2ccc(F)cc2)[nH]c1=O | 78 nM
CC(C)c1c(Cc2cccc3ccccc23)nc(SCC(=O)c2ccc(Cl)cc2)[nH]c1=O | 320 nM
CC(C)c1c(Cc2cccc3ccccc23)nc(SCC(=O)c2ccccc2)[nH]c1=O | 46 nM
O=c1[nH]cnc2c1ncn2[C@H]1CC[C@@H](CO)O1 [BMY-40900] | 5370 nM

test: Inhibitory concentration against SO561945 (HIV 1 mutant RT) viral infection of MT-4 cells

Compound | IC50
COc1ccc(C(=O)CSc2nc(Cc3cccc4ccccc34)c(C)c(=O)[nH]2)cc1 | 370 nM
CCc1c(Cc2cccc3ccccc23)nc(SCC(=O)c2ccc(C)cc2)[nH]c1=O | 320 nM
CCc1c(Cc2cccc3ccccc23)nc(SCC(=O)c2ccc(OC)cc2)[nH]c1=O | 45 nM
CCOC(=O)CSc1nc(Cc2cccc3ccccc23)c(C)c(=O)[nH]1 | 7000 nM
COC(=O)CSc1nc(Cc2cccc3ccccc23)c(C)c(=O)[nH]1 | 6990 nM
CCOC(=O)CSc1nc(Cc2cccc3ccccc23)c(C(C)C)c(=O)[nH]1 | 1410 nM
Cc1ccc(C(=O)CSc2nc(Cc3cccc4ccccc34)c(C)c(=O)[nH]2)cc1 | 670 nM
Cc1c(Cc2cccc3ccccc23)nc(SCC(=O)c2ccc(F)cc2)[nH]c1=O | 180 nM
CC(C)c1c(Cc2cccc3ccccc23)nc(SCC(=O)c2ccc(Cl)cc2)[nH]c1=O | > 270000 nM
Cc1c(Cc2cccc3ccccc23)nc(SCC(=O)c2ccc(Cl)cc2)[nH]c1=O | 550 nM
Cc1ccc(C(=O)CSc2nc(Cc3cccc4ccccc34)c(C(C)C)c(=O)[nH]2)c(C)c1 | 240 nM
CCc1c(Cc2cccc3ccccc23)nc(SCC(=O)OC)[nH]c1=O | 4720 nM
CC(=O)CSc1nc(Cc2cccc3ccccc23)c(C)c(=O)[nH]1 | 1120 nM
Cc1ccc(C(=O)CSc2nc(Cc3cccc4ccccc34)c(C(C)C)c(=O)[nH]2)cc1 | 240 nM

test: as above; remark: another data set of the same source

Compound | IC50
Cc1c(Sc2ccccc2)n(COCCO)c(=O)[nH]c1=O | > 405000 nM
CCc1c(Cc2cccc3ccccc23)nc(SCC(=O)c2ccc(F)cc2)[nH]c1=O | 24200 nM
COC(=O)CSc1nc(Cc2cccc3ccccc23)c(C(C)C)c(=O)[nH]1 | > 179000 nM
CC(=O)CSc1nc(Cc2cccc3ccccc23)c(C(C)C)c(=O)[nH]1 | > 43100 nM
CCc1c(Cc2cccc3ccccc23)nc(SCC(=O)c2ccc(OC)cc2)[nH]c1=O | > 178000 nM
COc1ccc(C(=O)CSc2nc(Cc3cccc4ccccc34)c(C(C)C)c(=O)[nH]2)cc1 | 5820 nM
CCc1c(Cc2cccc3ccccc23)nc(SCC(=O)c2ccc(Cl)cc2)[nH]c1=O | > 56000 nM
CCOC(=O)CSc1nc(Cc2cccc3ccccc23)c(C(C)C)c(=O)[nH]1 | > 175000 nM
CC(C)c1c(Cc2cccc3ccccc23)nc(SCC(=O)c2ccc(F)cc2)[nH]c1=O | 188000 nM
Cc1ccc(C(=O)CSc2nc(Cc3cccc4ccccc34)c(C(C)C)c(=O)[nH]2)c(C)c1 | 2670 nM
CC(C)c1c(Cc2cccc3ccccc23)nc(SCC(=O)c2ccccc2)[nH]c1=O | 19600 nM
O=c1[nH]cnc2c1ncn2[C@H]1CC[C@@H](CO)O1 [BMY-40900] | 7150 nM
